“Also recorded” adds a separate entry of the source.

Data set [1] can be described thus: Preliminary cell toxicity study in THP1 cells. The data set is classed as cell-based. The conditions noted are these: human.
Data set [2] concerns TXNIP mRNA. Kind of data set: TXNIP mRNA expression (RT-PCR) in murine MIN6 pancreatic beta cells. The format is cell-based. The conditions noted are these: 25 mM glucose, 72 h (FIG. 11 left). How it is done:
FIG. 11. […] MIN6 cells were cultured in 25 mM glucose with C1 at uM concentrations for 72 h. Total RNA was prepared. RT-PCR was performed. Data shown are the mean+SEM from triplicates. Statistical analysis was performed for each column vs. HG DMSO using one-way ANOVA: *<0.0001.
(§1) RNA extraction and quantitative RT-PCR. RNA was extracted using the Direct-zol™ RNA MiniPrep Plus (Zymo Research). Reverse transcription of RNA samples into cDNA was performed using the GeneAmp RNA PCR Kit (Applied Biosystems), dNTP (from Roche Applied Science), Rnase inhibitor, MULV Reverse Transcriptase and Random hexamers reagent (all from Invitrogen). Diluted cDNA was quantified using real-time PCR performed with Power SYBR Green qPCR MasterMix (Applied Biosystem) and 7500 real-time PCR system (Applied Biosystems). The HPRT1 gene was used as an internal control.

Data set [3] relates to TXNIP mRNA. Kind of data set: TXNIP mRNA expression (RT-PCR) in murine RAW macrophages. The data set is classed as cell-based. The conditions noted are these: RAW cells, 25 mM glucose, 72 h (FIG. 10A). The protocol: FIGS. 10A-10B. FIG. 10A. […] RAW cells were cultured in 25 mM glucose with C1 (uM) for 72 h. Total RNA was prepared. RT-PCR was performed. Data shown are the mean+SEM from triplicates. Statistical analysis was performed for each column vs. high glucose (HG) DMSO using one-way ANOVA: *<0.0001. FIG. 10B. […] RAW cells were cultured in 25 mM glucose with C1 (uM) for 72 hours. Total RNA was prepared. RT-PCR was performed. Data shown are the mean+SEM from triplicates. Statistical analysis was performed for each column vs. HG DMSO using one-way ANOVA: *<0.0001.
as §1

Data set [4] addresses T1, TXNIP (Homo sapiens, UniProt Q9H3M7).
T1 construct: Cell extracts were prepared; endogenous in cells; host or cells: THP1 cell lysate (25 mM glucose, 72 h)
T1 sequence (Q9H3M7 1-391): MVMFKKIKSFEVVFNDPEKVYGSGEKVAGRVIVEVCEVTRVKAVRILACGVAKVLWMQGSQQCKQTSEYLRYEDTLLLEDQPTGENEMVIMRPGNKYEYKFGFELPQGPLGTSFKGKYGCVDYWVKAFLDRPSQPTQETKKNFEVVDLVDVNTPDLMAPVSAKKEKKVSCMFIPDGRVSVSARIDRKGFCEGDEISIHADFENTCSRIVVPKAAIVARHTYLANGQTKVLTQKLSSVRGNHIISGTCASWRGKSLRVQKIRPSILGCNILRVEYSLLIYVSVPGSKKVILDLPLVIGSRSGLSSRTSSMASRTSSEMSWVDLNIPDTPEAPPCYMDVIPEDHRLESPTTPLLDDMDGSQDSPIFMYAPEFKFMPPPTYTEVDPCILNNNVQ
As to the kind of experiment: DARTS assay (drug affinity responsive target stability) in THP1 cell extracts. The format is binding. The conditions noted are these: THP1 extracts after 25 mM glucose 72 h; 10 and 20 minutes, 0.5 to 4 uM lanes (FIG. 15). The protocol: FIG. 15. […] THP1 cell were cultured in RPMI 1640 medium in 25 mM glucose for 72 hours. Cell extracts were prepared. C1 was added at the indicated concentrations and protease was added except in control cells. Aliquots were withdrawn at 10, 20, 30 and 40 minutes and loaded onto 10% SDS gels. C1: compound 1; control: without protease.
Assay 3: DARTS Assay (drug affinity responsive target stability). We adopted the DARTS assay because it is a straightforward method to check if a compound interacts with TXNIP. In this assay, when a compound binds to its target molecule, it can reduce the rate of its proteolytic digestion.
The drug affinity response target stability assay (DARTS assay) is a method to identify potential protein targets (binders) of small molecules. The advantage of this method is being able to use the native small molecule without having to immobilize or modify the […] (e.g., by incorporation of biotin, fluorescent molecules, radioisotope, or photo-affinity labels). In this case, it relies on the protection against proteolysis conferred on TXNIP by interaction with a small molecule (lead compound).
Drug affinity responsive target stability (DARTS) assay. DARTS assay was conducted according to a published protocol (Lomenick et al., 2009; Pai et al., 2015). THP1 cells were lysed with extract buffer. […]

`CC(C)C(C(=O)O)N1C(=O)c2ccncc2C1=O` (stereo not shown) [Compound C1, 2-(1,3-dioxo-1,3-dihydro-2H-pyrrolo[3,4-c]pyridin-2-yl)-3-methylbutanoic acid] registered a concentration for half-maximal inhibition (IC50) in data set [1] of 450 µM. In data set [2], the “TXNIP mRNA levels” value is “decreased TXNIP”. The “TXNIP mRNA expression” value in data set [3] was “inhibits TXNIP mRNA expression; also recorded: inhibited TXNIP and TNF-α mRNA expression”. In data set [4], the “protection of TXNIP from proteolysis” value is “stabilizes TXNIP by binding to it; also recorded: bind to TXNIP and prevent its proteolysis; also recorded: protects TXNIP from proteolysis”.

By IC50 is commonly meant the concentration needed to halve the response being measured.
